Measured values from US11178871B2, “Herbicidal pyrimidine compounds” (BASF SE, priority 2016, dated 2021).

Columns and labels:
Type in all cases: in vivo
[1] = system: Alopecurus myosuroides; test: greenhouse test, post-emergence treatment, ALOMY; settings: post-emergence
In short: (§1)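 Plants grown in loamy sand (~3.0% humus) to 3–15 cm height, then sprayed post-emergence with active ingredient suspended or emulsified in water. Kept at 10–25 °C or 20–35 °C by species for 2–4 weeks; damage scored visually 0–100 (100 = complete destruction of aerial parts, 0 = normal growth).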

[2] = system: Echinocloa crus-galli; test: greenhouse test, post-emergence treatment, ECHCG; settings: post-emergence
In short: as §1

[3] = system: Setaria viridis; test: greenhouse test, post-emergence treatment, SETVI
Source text: (§2) The culture containers used were plastic flowerpots containing loamy sand with approximately 3.0% of humus as the substrate. The seeds of the test plants were sown separately for each species.
(§3) For the post-emergence treatment, the test plants were first grown to a height of 3 to 15 cm, depending on the plant habit, and only then treated with the active ingredients which had been suspended or emulsified in water. For this purpose, the test plants were either sown directly and grown in the same containers, or they were first grown separately as seedlings and transplanted into the test containers a few days prior to treatment.
(§4) Depending on the species, the plants were kept at 10-25° C. or 20-35° C., respectively.
(§5) The test period extended over 2 to 4 weeks. During this time, the plants were tended, and their response to the individual treatments was evaluated.
(§6) Evaluation was carried out using a scale from 0 to 100. 100 means no emergence of the plants, or complete destruction of at least the aerial moieties, and 0 means no damage, or normal course of growth. A good herbicidal activity is given at values of at least 70 and a very good herbicidal activity is given at values of at least 85.
(§7) The plants used in the greenhouse experiments were of the following species: […]

[4] = system: Apera spica-venti; test: greenhouse test, pre-emergence treatment, APESV
In short: (§8)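 Damage scored visually on a 0-100 scale (100 = no emergence or complete destruction of aerial parts, 0 = normal growth) after 2 to 4 weeks. Treatment was applied pre-emergence as an aqueous suspension or emulsion immediately after sowing in loamy sand (approx. 3.0% humus).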

[5] = system: Echinocloa crus-galli; test: greenhouse test, pre-emergence treatment, ECHCG
In short: as §8

[6] = system: Amaranthus retroflexus; test: greenhouse test, post-emergence treatment, AMARE
Source text: as §2, §3, §4, §5, §6, §7

[7] = system: Avena fatua; test: greenhouse test, post-emergence treatment, AVEFA
In short: as §1

Cc1nc(C)c(-c2nc(C3CC3)ncc2-c2cc(Br)ccc2Br)o1 [Ex. 292]
herbicidal activity ([1]; 1000 g/ha): good (A good herbicidal activity is given at values of at least 70) | herbicidal activity ([2]; 1000 g/ha): very good (a very good herbicidal activity is given at values of at least 85) | herbicidal activity ([3]; 1000 g/ha): very good (a very good herbicidal activity is given at values of at least 85) | herbicidal activity ([4]; 1000 g/ha): very good (a very good herbicidal activity is given at values of at least 85) | herbicidal activity ([5]; 1000 g/ha): very good (a very good herbicidal activity is given at values of at least 85)

Cc1cc(-c2nc(C3CC3)ncc2-c2ccccc2Br)co1 [Ex. 271]
herbicidal activity ([2]; 1000 g/ha): good (A good herbicidal activity is given at values of at least 70) | herbicidal activity ([3]; 1000 g/ha): very good (a very good herbicidal activity is given at values of at least 85)

CC(O)c1nc(C2CC2)ncc1-c1ccccc1Cl (centres unmarked) [Ex. 49]
herbicidal activity ([1]; 1000 g/ha): very good (a very good herbicidal activity is given at values of at least 85) | herbicidal activity ([2]; 1000 g/ha): good (A good herbicidal activity is given at values of at least 70) | herbicidal activity ([3]; 1000 g/ha): very good (a very good herbicidal activity is given at values of at least 85) | herbicidal activity ([4]; 1000 g/ha): good (A good herbicidal activity is given at values of at least 70) | herbicidal activity ([5]; 1000 g/ha): good (A good herbicidal activity is given at values of at least 70)

Cc1nc(C(C)(Br)Br)ncc1-c1ccccc1Cl [Ex. 50]
herbicidal activity ([6]; 500 g/ha): very good (a very good herbicidal activity is given at values of at least 85) | herbicidal activity ([3]; 500 g/ha): very good (a very good herbicidal activity is given at values of at least 85)

CCc1ncc(-c2ccccc2Br)c(-c2ccco2)n1 [Ex. 62]
herbicidal activity ([3]; 500 g/ha): very good (a very good herbicidal activity is given at values of at least 85)

CCc1nc(C)c(-c2nc(C3CC3)ncc2-c2ccccc2Cl)o1 [Ex. 272]
herbicidal activity ([1]; 2000 g/ha): very good (a very good herbicidal activity is given at values of at least 85) | herbicidal activity ([7]; 2000 g/ha): very good (a very good herbicidal activity is given at values of at least 85) | herbicidal activity ([3]; 2000 g/ha): very good (a very good herbicidal activity is given at values of at least 85) | herbicidal activity ([4]; 2000 g/ha): very good (a very good herbicidal activity is given at values of at least 85) | herbicidal activity ([5]; 2000 g/ha): very good (a very good herbicidal activity is given at values of at least 85)

Clc1ccc(-c2nc(C3CC3)ncc2-c2ccccc2Cl)s1 [Ex. 119]
herbicidal activity ([1]; 1000 g/ha): very good (a very good herbicidal activity is given at values of at least 85) | herbicidal activity ([3]; 1000 g/ha): good (A good herbicidal activity is given at values of at least 70)

CC(C)=Cc1nc(C2CC2)ncc1-c1ccccc1Cl [Ex. 70]
herbicidal activity ([1]; 2000 g/ha): very good (a very good herbicidal activity is given at values of at least 85) | herbicidal activity ([3]; 2000 g/ha): very good (a very good herbicidal activity is given at values of at least 85)

Clc1ccccc1-c1cnc(C2CC2)nc1-c1cccnc1 [Ex. 123]
herbicidal activity ([6]; 2000 g/ha): very good (a very good herbicidal activity is given at values of at least 85) | herbicidal activity ([3]; 2000 g/ha): good (A good herbicidal activity is given at values of at least 70)

Cn1c(-c2nc(C3CC3)ncc2-c2ccccc2Cl)coc1=O [Ex. 289]
herbicidal activity ([1]; 2000 g/ha): very good (a very good herbicidal activity is given at values of at least 85) | herbicidal activity ([6]; 2000 g/ha): very good (a very good herbicidal activity is given at values of at least 85) | herbicidal activity ([3]; 2000 g/ha): very good (a very good herbicidal activity is given at values of at least 85) | herbicidal activity ([4]; 2000 g/ha): very good (a very good herbicidal activity is given at values of at least 85) | herbicidal activity ([5]; 2000 g/ha): very good (a very good herbicidal activity is given at values of at least 85)

O=[N+]([O-])c1ccccc1-c1cnc(C2CC2)nc1-c1cccs1 [Ex. 38]
herbicidal activity ([3]; 1000 g/ha): good (A good herbicidal activity is given at values of at least 70)

CC(C)(C)CCc1nc(C2CC2)ncc1-c1ccccc1Cl [Ex. 103]
herbicidal activity ([3]; 2000 g/ha): very good (a very good herbicidal activity is given at values of at least 85)

Clc1ccccc1-c1cnc(C2CC2)nc1C1CCCS1 (centres unmarked) [Ex. 55]
herbicidal activity ([6]; 1000 g/ha): very good (a very good herbicidal activity is given at values of at least 85) | herbicidal activity ([3]; 1000 g/ha): very good (a very good herbicidal activity is given at values of at least 85)

Ic1ccccc1-c1cnc(C2CCC2)nc1-c1ccco1 [Ex. 78]
herbicidal activity ([3]; 1000 g/ha): very good (a very good herbicidal activity is given at values of at least 85)

Clc1ccccc1-c1cnc(C2CC2)nc1CC1CCC1 [Ex. 98]
herbicidal activity ([3]; 500 g/ha): good (A good herbicidal activity is given at values of at least 70)

Cc1ccoc1-c1nc(C2CC2)ncc1-c1ccccc1Cl [Ex. 30]
herbicidal activity ([1]; 2000 g/ha): very good (a very good herbicidal activity is given at values of at least 85) | herbicidal activity ([3]; 2000 g/ha): very good (a very good herbicidal activity is given at values of at least 85) | herbicidal activity ([4]; 2000 g/ha): very good (a very good herbicidal activity is given at values of at least 85) | herbicidal activity ([5]; 2000 g/ha): very good (a very good herbicidal activity is given at values of at least 85)

Cc1occc1-c1nc(C2CC2)ncc1-c1ccccc1Cl [Ex. 58]
herbicidal activity ([7]; 1000 g/ha): good (A good herbicidal activity is given at values of at least 70) | herbicidal activity ([3]; 1000 g/ha): very good (a very good herbicidal activity is given at values of at least 85)

CCc1ocnc1-c1nc(C2CC2)ncc1-c1ccccc1Cl [Ex. 282]
herbicidal activity ([1]; 2000 g/ha): very good (a very good herbicidal activity is given at values of at least 85) | herbicidal activity ([7]; 2000 g/ha): very good (a very good herbicidal activity is given at values of at least 85) | herbicidal activity ([3]; 2000 g/ha): very good (a very good herbicidal activity is given at values of at least 85) | herbicidal activity ([4]; 2000 g/ha): very good (a very good herbicidal activity is given at values of at least 85) | herbicidal activity ([5]; 2000 g/ha): very good (a very good herbicidal activity is given at values of at least 85)

CC(Br)c1ncc(-c2ccccc2Cl)c(CBr)n1 (centres unmarked) [Ex. 51]
herbicidal activity ([3]; 1000 g/ha): very good (a very good herbicidal activity is given at values of at least 85)

Clc1ccccc1-c1cnc(C2CC2)nc1-c1ccco1 [Ex. 24]
herbicidal activity ([2]; 2000 g/ha): very good (a very good herbicidal activity is given at values of at least 85) | herbicidal activity ([3]; 2000 g/ha): very good (a very good herbicidal activity is given at values of at least 85) | herbicidal activity ([4]; 2000 g/ha): very good (a very good herbicidal activity is given at values of at least 85) | herbicidal activity ([5]; 2000 g/ha): very good (a very good herbicidal activity is given at values of at least 85)

Cc1ncoc1-c1nc(C2CC2)ncc1-c1cc(Br)ccc1Br [Ex. 273]
herbicidal activity ([1]; 1000 g/ha): very good (a very good herbicidal activity is given at values of at least 85) | herbicidal activity ([6]; 1000 g/ha): very good (a very good herbicidal activity is given at values of at least 85) | herbicidal activity ([3]; 1000 g/ha): very good (a very good herbicidal activity is given at values of at least 85) | herbicidal activity ([4]; 1000 g/ha): very good (a very good herbicidal activity is given at values of at least 85) | herbicidal activity ([5]; 1000 g/ha): very good (a very good herbicidal activity is given at values of at least 85)

Clc1ccccc1-c1cnc(C2CC2)nc1-c1ccc(Br)o1 [Ex. 31]
herbicidal activity ([1]; 2000 g/ha): very good (a very good herbicidal activity is given at values of at least 85) | herbicidal activity ([3]; 2000 g/ha): very good (a very good herbicidal activity is given at values of at least 85) | herbicidal activity ([4]; 2000 g/ha): very good (a very good herbicidal activity is given at values of at least 85) | herbicidal activity ([5]; 2000 g/ha): very good (a very good herbicidal activity is given at values of at least 85)

Clc1ccccc1-c1cnc(C2CC2)nc1C=C1CCOCC1 [Ex. 92]
herbicidal activity ([1]; 2000 g/ha): good (A good herbicidal activity is given at values of at least 70) | herbicidal activity ([2]; 2000 g/ha): good (A good herbicidal activity is given at values of at least 70) | herbicidal activity ([3]; 2000 g/ha): good (A good herbicidal activity is given at values of at least 70)

Cc1nc(-c2nc(C3CC3)ncc2-c2ccccc2Cl)c(C)o1 [Ex. 277]
herbicidal activity ([1]; 1000 g/ha): very good (a very good herbicidal activity is given at values of at least 85) | herbicidal activity ([2]; 1000 g/ha): very good (a very good herbicidal activity is given at values of at least 85) | herbicidal activity ([3]; 1000 g/ha): very good (a very good herbicidal activity is given at values of at least 85) | herbicidal activity ([4]; 1000 g/ha): very good (a very good herbicidal activity is given at values of at least 85) | herbicidal activity ([5]; 1000 g/ha): very good (a very good herbicidal activity is given at values of at least 85)

Ic1ccccc1-c1cnc(C2CC2)nc1-c1ccco1 [Ex. 76]
herbicidal activity ([1]; 1000 g/ha): good (A good herbicidal activity is given at values of at least 70) | herbicidal activity ([3]; 1000 g/ha): very good (a very good herbicidal activity is given at values of at least 85)

Fc1cccc(-c2cnc(C3CC3)nc2-c2ccco2)c1Cl [Ex. 33]
herbicidal activity ([3]; 2000 g/ha): good (A good herbicidal activity is given at values of at least 70)

O=P(O)(O)C(Cc1nc(C2CC2)ncc1-c1ccccc1Cl)P(=O)(O)O [Ex. 90]
herbicidal activity ([3]; 2000 g/ha): very good (a very good herbicidal activity is given at values of at least 85)
